The supplement of paper PMC7017272
± gives the standard deviation of the averaged measurements.

Experiments:
[1] = test system: UT-SCC-81; experiment: drug sensitivity score (DSS); higher = more sensitive; extreme values may be limits of the assay; details: treatment time: 3 days
How it was run: (§1)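 The FIMM pipeline was used to fit percent-inhibition dose–response curves, giving IC50, maximal inhibition and drug sensitivity score. Input data were CellTiter-Glo 2.0 luminescence readings, normalised to vehicle (0.1% DMSO) and cell-killing control wells, from HPV-negative HNSCC cell lines seeded at 500 cells/well in 384-well plates. Cells sat on plastic, on Matrigel or Myogel coatings (500 µg/mL), or within Matrigel or Myogel plus rat collagen I, and received compounds at five 10-fold concentrations for 3 days.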

[2] = test system: UT-SCC-42B; experiment: as above; details: treatment time: 3 days
How it was run: as §1

[3] = test system: UT-SCC-8; experiment: as above; details: treatment time: 3 days
How it was run: as §1

[4] = test system: UT-SCC-24B; experiment: as above; details: treatment time: 3 days
How it was run: as §1

[5] = test system: UT-SCC-44; experiment: as above; details: treatment time: 3 days
How it was run: as §1

[6] = test system: UT-SCC-73; experiment: as above; details: treatment time: 3 days
How it was run: as §1

[7] = test system: UT-SCC-42A; experiment: as above; details: treatment time: 3 days
How it was run: as §1

[8] = test system: UT-SCC-40; experiment: as above; details: treatment time: 3 days
How it was run: as §1

[9] = test system: UT-SCC-14; experiment: as above; details: treatment time: 3 days
How it was run: as §1

[10] = test system: UT-SCC-28; experiment: as above; details: treatment time: 3 days
How it was run: as §1

[11] = test system: UT-SCC-106A; experiment: as above; details: treatment time: 3 days
How it was run: as §1

[12] = test system: UT-SCC-81; experiment: relative IC50 (midpoint of the fitted curve; maximal inhibition may be below 50%); higher = less potent; details: treatment time: 3 days
How it was run: as §1

[13] = test system: UT-SCC-42B; experiment: as above; details: treatment time: 3 days
How it was run: as §1

[14] = test system: UT-SCC-44; experiment: as above; details: treatment time: 3 days
How it was run: as §1

[15] = test system: UT-SCC-73; experiment: as above; details: treatment time: 3 days
How it was run: as §1

[16] = test system: UT-SCC-42A; experiment: as above; details: culture condition: on top of Matrigel; treatment time: 3 days
How it was run: as §1

[17] = test system: UT-SCC-14; experiment: as above; details: treatment time: 3 days
How it was run: as §1

[18] = test system: UT-SCC-24A; experiment: relative IC50 (midpoint of the fitted curve; maximal inhibition may be below 50%); higher = less potent; details: treatment time: 3 days
Procedure: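 HNSCC cell lines (500 cells/well, 384-well) were cultured on plastic, on top of (2D) or embedded (3D) in Matrigel or human leiomyoma matrix Myogel (500 ug/mL; Myogel 3D mixed with rat collagen I). Cells were treated for 3 days with 5 ten-fold concentrations of each drug, and viability was read by CellTiter-Glo. Viability was normalised to DMSO (0% inhibition) and 100 uM benzethonium chloride (100% inhibition) controls and fitted with the FIMM DSRT pipeline to give IC50 (nM), maximal % inhibition and the drug sensitivity score (DSS). Suffixes _1/_2/_3 on drug names are replicates.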

[19] = culture condition: embedded in Matrigel
[20] = culture condition: embedded in Myogel + collagen I
[21] = culture condition: on top of Matrigel
[22] = culture condition: on top of Myogel
[23] = culture condition: plastic 2D (no matrix)

For `CC(=O)Nc1cccc(-n2c(=O)n(C3CC3)c(=O)c3c(Nc4ccc(I)cc4F)n(C)c(=O)c(C)c32)c1` [Trametinib], the drug sensitivity score [1, 19] was 31.1 ± 6 DSS, the drug sensitivity score [1, 20] was 3.93 ± 0.58 DSS and the drug sensitivity score [1, 21] was 18.2 ± 2.1 DSS. The drug sensitivity score [1, 22] was 4.77 ± 4 DSS, the drug sensitivity score [1, 23] was 7.57 ± 2.1 DSS and the drug sensitivity score [2, 19] was 17.6 ± 2.3 DSS. It also gave a drug sensitivity score [2, 21] of 9.67 ± 0.84 DSS, a drug sensitivity score [2, 22] of 1.4 ± 1.4 DSS and a drug sensitivity score [2, 23] of 3.77 ± 2.9 DSS. The drug sensitivity score [3, 19] was 9.37 ± 3.3 DSS, the drug sensitivity score [3, 20] was 3.9 ± 6.8 DSS and the drug sensitivity score [3, 21] was 6.63 ± 5 DSS. The drug sensitivity score [3, 22] was 4.7 ± 4 DSS, the drug sensitivity score [3, 23] was 4.93 ± 4 DSS and the drug sensitivity score [4, 19] was 11 ± 1 DSS. It also gave a drug sensitivity score [4, 20] of 10.3 ± 2.3 DSS, a drug sensitivity score [4, 21] of 10.1 ± 1.1 DSS and a drug sensitivity score [4, 22] of 6.67 ± 1.4 DSS. For the same molecule, the drug sensitivity score [4, 23] was 13.8 ± 0.95 DSS, the drug sensitivity score [5, 19] was 18.2 ± 0.7 DSS and the drug sensitivity score [5, 20] was 4.27 ± 1.7 DSS. The drug sensitivity score [5, 21] was 12.5 ± 1.8 DSS, the drug sensitivity score [5, 22] was 5.07 ± 3.6 DSS and the drug sensitivity score [5, 23] was 10.2 ± 1.6 DSS. It also gave a drug sensitivity score [6, 19] of 19.8 ± 3.1 DSS, a drug sensitivity score [6, 20] of 15.4 ± 3.3 DSS and a drug sensitivity score [6, 21] of 18.7 ± 3.7 DSS. The drug sensitivity score [6, 22] was 14.6 ± 1.9 DSS, the drug sensitivity score [6, 23] was 16.1 ± 3.1 DSS and the drug sensitivity score [7, 19] was 7.6 ± 5.4 DSS. The drug sensitivity score [7, 20] was 2.57 ± 2.8 DSS, the drug sensitivity score [7, 21] was 10.5 ± 0.9 DSS and the drug sensitivity score [7, 22] was 6.97 ± 0.8 DSS. The drug sensitivity score [7, 23] was 5.87 ± 3.6 DSS, the drug sensitivity score [8, 19] was 18.4 ± 4.2 DSS and the drug sensitivity score [8, 20] was 13.4 ± 2.6 DSS. The drug sensitivity score [8, 21] was 15.7 ± 2.8 DSS, the drug sensitivity score [8, 22] was 10.9 ± 1.8 DSS and the drug sensitivity score [8, 23] was 11.3 ± 3.5 DSS. The drug sensitivity score [9, 19] was 9.3 ± 2.1 DSS, the drug sensitivity score [9, 20] was 6.63 ± 3.8 DSS and the drug sensitivity score [9, 21] was 6.5 ± 3.7 DSS. It also gave a drug sensitivity score [9, 22] of 3.43 ± 1.8 DSS, a drug sensitivity score [9, 23] of 2.23 ± 1.9 DSS and a drug sensitivity score [10, 19] of 5.9 ± 1.1 DSS. It also gave a drug sensitivity score [10, 20] of 3.83 ± 3.9 DSS, a drug sensitivity score [10, 21] of 7.33 ± 3.5 DSS and a drug sensitivity score [10, 23] of 4.33 ± 1.3 DSS. For the same molecule, the drug sensitivity score [11, 19] was 15.3 ± 2.4 DSS, the drug sensitivity score [11, 20] was 0.6 ± 0.6 DSS and the drug sensitivity score [11, 21] was 16.9 ± 1.2 DSS. The drug sensitivity score [11, 22] was 3.1 ± 2.4 DSS, the drug sensitivity score [11, 23] was 17.3 ± 0.72 DSS and the “relative IC50” value [12, 20] was 6.59 nM. For the same molecule, the “relative IC50” value [12, 23] was 7.02 nM, the “relative IC50” value [13, 19] was 1.71 nM and the “relative IC50” value [13, 21] was 5.67 nM. For the same molecule, the “relative IC50” value [13, 22] was 12.5 nM, the “relative IC50” value [14, 19] was 1.55 nM and the “relative IC50” value [14, 21] was 1.52 nM. For the same molecule, the “relative IC50” value [14, 23] was 1.46 nM, the “relative IC50” value [15, 19] was 2.42 nM and the “relative IC50” value [15, 22] was 3.31 nM. The “relative IC50” value [16] was 3.65 nM, the “relative IC50” value [17, 19] was 3.5 nM and the “relative IC50” value [17, 21] was 7.96 nM. The “relative IC50” value [17, 23] was 17.5 nM, the “relative IC50” value [18, 19] was 1.4 nM and the “relative IC50” value [18, 21] was 1.34 nM. For the same molecule, the “relative IC50” value [18, 23] was 1.07 nM.
